Earlier results, collected in article doi:10.1101/2024.08.20.608791v1 (bioRxiv, 2024).
Blank lines part the entries; values can stand above or below the compound they belong to.

Tests used:
[1] = oral bioavailability in animals, species not stated
[2] = assay not specified
[3] = for observed F: oral bioavailability, not marked as animal data, source not stated per compound
[4] = humans; for estimated / proposed fa: oral, compounds without fa values in man, estimate or proposal only
[5] = <LOQ
[6] = test system: Caco-2

Compound: CC1(C)CC[C@]2(NC(=O)C(C)(F)F)CC[C@]3(C)[C@H](C(=O)C=C4[C@@]5(C)C=C(C#N)C(=O)C(C)(C)[C@@H]5CC[C@]43C)[C@@H]2C1 [omaveloxolone]
- observed F [3]: 8%

Compound: semaglutide
- observed F [3]: 0.8%

Compound: anidulafungin
- solubility in water (in words) [5]: practically insoluble in water
- F ([3]; species not stated, quoted as comparison for micafungin): 2-7%

Compound: CC[C@@H]1C[C@]1(NC(=O)[C@@H]1C[C@@H](Oc2cc(-c3csc(NC(C)C)n3)nc3c(Cl)c(OCCN4CCOCC4)ccc23)CN1C(=O)[C@@H](NC(=O)O[C@@H]1C[C@@H]2C[C@@H]2C1)C(C)(C)C)C(=O)O [vedroprevir]
- solubility in water (in words) [5]: practically insoluble in water
- observed F in animals [1]: 49-123%
- in vitro permeability (in words) [2]: low in vitro permeability

Compound: desmopressin
- observed F [3]: 0.08-0.16%

Compound: CC1(C)S[C@@H]2[C@H](NC(=O)[C@H](NC(=O)N3CCN(S(C)(=O)=O)C3=O)c3ccccc3)C(=O)N2[C@H]1C(=O)O [mezlocillin]
- estimated / proposed fa [4]: zero

Compound: cholecystokinin octapeptide
- observed F [3]: 0.2%

The next lines start with the values.

- observed F in animals [1]: 11-33%
Compound: CC(C)c1nc(CN(C)C(=O)N[C@@H](CCN2CCOCC2)C(=O)N[C@H](CC[C@H](Cc2ccccc2)NC(=O)OCc2cncs2)Cc2ccccc2)cs1 [cobicistat]

- observed F in animals [1]: 25%
- in vitro permeability (in words) [2]: moderate in vitro permeability
Compound: CC(=O)O[C@H]1C(=O)[C@@]2(C)[C@H]([C@H](OC(=O)c3ccccc3)[C@]34OC(=O)O[C@H]3[C@H](OC(=O)[C@H](O)[C@H](CC(C)C)NC(=O)OC(C)(C)C)C(C)=C1C4(C)C)[C@]1(OC(C)=O)CO[C@@H]1C[C@@H]2O [ortataxel]

- estimated / proposed fa [4]: > 15%
Compound: C=CC[C@@H]1/C=C(\C)C[C@H](C)C[C@H](OC)[C@H]2O[C@@](O)(C(=O)C(=O)N3CCCC[C@H]3C(=O)O[C@H](/C(C)=C/[C@@H]3CC[C@@H](O)[C@H](OC)C3)[C@H](C)[C@@H](O)CC1=O)[C@H](C)C[C@@H]2OC [tacrolimus]

- Caco-2 permeability (in words) ([6]; Caco-2 experiments): moderate permeability
- fa predicted using the Caco-2 assay ([6]; underprediction of human fa from Caco-2): ~50%
Compound: C[C@H]1O[C@@H](O[C@H]2[C@@H](O)C[C@H](O[C@H]3[C@@H](O)C[C@H](O[C@H]4CC[C@@]5(C)[C@H](CC[C@@H]6[C@@H]5C[C@@H](O)[C@]5(C)[C@@H](C7=CC(=O)OC7)CC[C@]65O)C4)O[C@@H]3C)O[C@@H]2C)C[C@H](O)[C@@H]1O [Digoxin]

- observed F in animals [1]: 26-39%
Compound: C=C[C@@H]1C[C@]1(NC(=O)[C@@H]1C[C@@H](Oc2cc(-c3csc(NC(=O)C(C)C)n3)nc3c(Br)c(OC)ccc23)CN1C(=O)[C@@H](NC(=O)OC1CCCC1)C(C)(C)C)C(=O)O [faldaprevir]

- fraction absorbed (fa) of approved oral drugs [4]: > 65%
- solubility in water (in words) [5]: practically insoluble in water
- log P (as reported in Table 1 and text, source and method not stated): 8.2
Compound: CC1(C)CCC(CN2CCN(c3ccc(C(=O)NS(=O)(=O)c4ccc(NCC5CCOCC5)c([N+](=O)[O-])c4)c(Oc4cnc5[nH]ccc5c4)c3)CC2)=C(c2ccc(Cl)cc2)C1 [Venetoclax]

- estimated / proposed fa [4]: 25-30%
- solubility in water (in words) [5]: practically insoluble in water
Compound: COC[C@H]1C[C@@H](c2ncc(-c3ccc4c(c3)COc3cc5c(ccc6nc([C@@H]7CC[C@H](C)N7C(=O)[C@@H](NC(=O)OC)C(C)C)[nH]c65)cc3-4)[nH]2)N(C(=O)[C@H](NC(=O)OC)c2ccccc2)C1 [velpatasvir]

- solubility in water (in words) [5]: practically insoluble in water
- observed F in animals [1]: 52%
- calculated log P (calculated): 5.4
- experimentally determined log P (experimental): 2.4
- in vitro permeability (in words) [2]: high in vitro permeability
Compound: CC[C@@H]([C@H](C)O)n1ncn(-c2ccc(N3CCN(c4ccc(OC[C@@H]5CO[C@@](Cn6cncn6)(c6ccc(F)cc6F)C5)cc4)CC3)cc2)c1=O [posaconazole]
